According to patent US8084457B2, “Pharmaceutically active 4,6-disubstituted aminopyrimidine derivatives as modulators of protein kinases” (Lead Discovery Center GmbH, priority 2003, dated 2011):

What was measured:
CDK9/Cyclin T1 = target: T1, CDK9/Cyclin T1 (Homo sapiens, UniProt P50750); test: Kinase assay using CDK9/Cyclin T1; assay type: biochemical; details: read-out: CDK9 (activity range)
T1 construct: made in house; host or cells: HEK293 cells, recombinant adenovirus
Source text: Cloning of CDK9 and Cyclin T1:
Both cDNA fragments were cloned by PCR into pDONR201 vectors using the gateway recombination system (Invitrogen) according to the manufacturer's recommendations. The fragments were subcloned into a gateway-adapted shuttle vector (pPM7) for production of recombinant adenovirus. All plasmids were verified by restriction digests and sequencing analysis.
Expression and Purification of CDK9/Cyclin T1 Proteins:
Expression and purification was in principle performed as described by Cotten et al. (M. Cotten et al., Nucleic acids research, 2003, 31(28), 128).
Kinase Assay Using CDK9/Cyclin T1:
Kinase assays were performed in principle as described by Cotten et al. (M. Cotten et al., Nucleic acids research, 2003, 31(28), 128).

CDK2/CyclinA = target: T2, CDK2/CyclinA (Homo sapiens, UniProt P24941); test: Kinase assay determining CDK2/CyclinA activity; assay type: biochemical; details: read-out: CDK2 (activity range)
T2 construct: purchased Proqinase
Procedure: Kinase Assays Determining CDK2/CyclinA and CDK5/p35 Activity:
Kinase assays were performed as described by the manufacturers recommendations (Proqinase for CDK2/CyclinA and Upsate for CDK5/p35).

T1 sequence (P50750 whole entry): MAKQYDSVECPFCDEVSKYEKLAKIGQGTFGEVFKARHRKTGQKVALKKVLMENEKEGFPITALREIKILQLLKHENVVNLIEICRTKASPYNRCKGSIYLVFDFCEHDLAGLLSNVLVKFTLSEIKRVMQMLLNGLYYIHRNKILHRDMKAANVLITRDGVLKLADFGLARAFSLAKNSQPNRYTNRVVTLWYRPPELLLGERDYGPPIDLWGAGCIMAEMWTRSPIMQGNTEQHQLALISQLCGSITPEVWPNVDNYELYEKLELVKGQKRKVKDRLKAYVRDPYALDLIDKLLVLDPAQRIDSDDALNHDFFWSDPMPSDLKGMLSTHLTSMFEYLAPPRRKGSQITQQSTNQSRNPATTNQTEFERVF
T1 sequence (O60563 whole entry partner): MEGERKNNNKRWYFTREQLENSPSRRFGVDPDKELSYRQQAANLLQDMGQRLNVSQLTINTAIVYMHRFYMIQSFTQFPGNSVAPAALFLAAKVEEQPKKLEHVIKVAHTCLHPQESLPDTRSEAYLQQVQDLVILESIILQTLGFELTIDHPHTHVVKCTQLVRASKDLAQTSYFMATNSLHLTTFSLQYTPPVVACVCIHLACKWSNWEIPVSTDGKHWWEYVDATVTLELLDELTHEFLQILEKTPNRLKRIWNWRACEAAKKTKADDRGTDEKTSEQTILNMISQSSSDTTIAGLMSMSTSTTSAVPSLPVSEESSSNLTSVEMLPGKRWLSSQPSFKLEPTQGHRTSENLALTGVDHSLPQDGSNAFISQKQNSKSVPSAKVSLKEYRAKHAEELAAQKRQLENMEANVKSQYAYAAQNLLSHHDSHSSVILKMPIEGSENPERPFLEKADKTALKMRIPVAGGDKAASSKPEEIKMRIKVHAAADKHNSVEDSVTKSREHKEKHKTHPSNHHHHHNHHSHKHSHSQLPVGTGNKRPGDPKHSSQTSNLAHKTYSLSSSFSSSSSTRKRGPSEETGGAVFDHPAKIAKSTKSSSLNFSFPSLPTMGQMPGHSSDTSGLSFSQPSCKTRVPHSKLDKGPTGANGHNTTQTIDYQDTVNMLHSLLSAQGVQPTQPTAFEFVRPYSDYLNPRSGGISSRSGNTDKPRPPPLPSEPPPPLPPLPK

| Compound | IC50 (CDK9/Cyclin T1) | IC50 (CDK2/CyclinA) |
| --- | --- | --- |
| Cc1ccc(S(=O)(=O)Nc2ccc(Nc3cc(Cl)ncn3)cc2)cc1 [(24)] | 10 to 250 µM | 1 to 10 µM |
| CC(C)(C)C(=O)Nc1ccc(Nc2cc(NCCN)ncn2)cc1 [(79)] | 10 to 250 µM | 10 to 250 µM |
| Cc1ccc(Nc2cc(-c3cccc(N)c3)ncn2)cc1NS(=O)(=O)c1cn(C)cn1 [(144)] | 0.001 to 1 µM | 0.001 to 1 µM |
| COc1ccccc1-c1cc(Nc2ccc(NC(=O)CC3CCCCN3C(=O)OC(C)(C)C)cc2)ncn1 (stereo not drawn) [(48)] | 1 to 10 µM | 1 to 10 µM |
| Cc1ccc(Nc2cc(-c3cccc(C=O)c3)ncn2)cc1NS(C)(=O)=O [(165)] | 1 to 10 µM | 1 to 10 µM |
| Cc1ccc(Nc2cc(-c3cccc(N)c3)ncn2)cc1NS(C)(=O)=O [(12)] | 0.001 to 1 µM | 0.001 to 1 µM |
| COc1ccccc1-c1cc(Nc2ccc(NC(=O)C(C)(C)C)cc2C)ncn1 [(119)] | 10 to 250 µM | 10 to 250 µM |
| CS(=O)(=O)Nc1cccc(Nc2cc(-c3cccc(N)c3)ncn2)c1 [(121)] | 0.001 to 1 µM | 1 to 10 µM |
| CCCCNS(=O)(=O)c1cccc(Nc2cc(-c3ccccc3OC)ncn2)c1 [(184)] | 0.001 to 1 µM | 1 to 10 µM |
| CC(C)(C)C(=O)Nc1ccc(Nc2cc(NCCCO)ncn2)cc1 [(80)] | 10 to 250 µM | 10 to 250 µM |
| Cc1ccc(Nc2cc(-c3cccc(NS(C)(=O)=O)c3)ncn2)cc1NS(C)(=O)=O [(108)] | 1 to 10 µM | 0.001 to 1 µM |
| COc1ccccc1-c1cc(NCCc2ccncc2)ncn1 [(93)] | 1 to 10 µM | 10 to 250 µM |

Continued, values first:

| IC50 (CDK9/Cyclin T1) | IC50 (CDK2/CyclinA) | Compound |
| --- | --- | --- |
| 10 to 250 µM | 10 to 250 µM | Cc1ccc(S(=O)(=O)Nc2ccc(Nc3cc(-c4ccc(CCC(=O)O)cc4)ncn3)cc2)cc1 [(17)] |
| 10 to 250 µM | 10 to 250 µM | Nc1ccc(C(=O)Nc2ccc(Nc3cc(/C=C/c4ccccc4)ncn3)cc2)cc1 [(32)] |
| 0.001 to 1 µM | 1 to 10 µM | COc1ccccc1-c1cc(Nc2ccc(NS(=O)(=O)c3ccc(C(C)C)cc3)cc2)ncn1 [(23)] |
| 1 to 10 µM | 10 to 250 µM | Nc1ccc(C(=O)Nc2ccc(Nc3cc(NCC4CCCCC4)ncn3)cc2)cc1 [(43)] |
| 0.001 to 1 µM | 1 to 10 µM | COc1ccccc1-c1cc(Nc2ccc(NC(=O)C(N)c3ccc4ccccc4c3)cc2)ncn1 (stereo not drawn) [(146)] |
| 0.001 to 1 µM | 1 to 10 µM | CS(=O)(=O)Nc1cccc(-c2cc(Nc3ccc(C(=O)N[C@@H]4CCCC[C@H]4N)cc3)ncn2)c1 (racemic) [(195)] |
| 0.001 to 1 µM | 0.001 to 1 µM | COC(=O)c1ccc(Nc2cc(-c3ccccc3OC)ncn2)cc1 [(15)] |
| 0.001 to 1 µM | 1 to 10 µM | COc1ccccc1-c1cc(Nc2ccc(NC(=O)c3ccc4c(c3)OCO4)cc2)ncn1 [(130)] |
| 0.001 to 1 µM | 1 to 10 µM | COc1ccccc1-c1cc(Nc2ccc(C(=O)NC3CCCCC3N)cc2)ncn1 (stereo not drawn) [(148)] |
| 10 to 250 µM | 1 to 10 µM | CCc1ccccc1-c1cc(Nc2ccc(NC(=O)C(C)(C)C)cc2)ncn1 [(131)] |
| 1 to 10 µM | 10 to 250 µM | COc1ccccc1-c1cc(Nc2ccc(NC(=O)C(c3ccccc3)C(C)C)cc2)ncn1 (stereo not drawn) [(37)] |
| 0.001 to 1 µM | 0.001 to 1 µM | COc1ccccc1-c1cc(Nc2ccc(-c3nc4ccccc4[nH]3)cc2)ncn1 [(63)] |
| 1 to 10 µM | 10 to 250 µM | Nc1ccc(C(=O)Nc2ccc(Nc3cc(-c4ccccc4)ncn3)cc2)cc1 [(76)] |
| 1 to 10 µM | 10 to 250 µM | COc1ccccc1-c1cc(Nc2ccc(C(=O)Nc3ccc(C(C)C)cc3)cc2)ncn1 [(137)] |
| 10 to 250 µM | 10 to 250 µM | Nc1ccc(C(=O)Nc2ccc(Nc3cc(Cl)ncn3)cc2)cc1 [(25)] |
| 0.001 to 1 µM | 1 to 10 µM | O=C(Nc1ccc(Nc2cc(-c3ccc(Oc4ccccc4)cc3)ncn2)cc1)[C@@H]1CCCCN1 [(174)] |
| 1 to 10 µM | 10 to 250 µM | COc1ccccc1-c1cc(Nc2ccc(NC(=O)c3ccc(C(C)(C)C)cc3)cc2)ncn1 [(45)] |
| 0.001 to 1 µM | 1 to 10 µM | CC(C)(C)C(=O)Nc1ccc(Nc2cc(-c3ccccc3OCc3ccccc3)ncn2)cc1 [(85)] |
